Reference: PubChem BioAssay (NCI)
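In this assay, cells in 96-well plates receive the compound at five concentrations for 48 hours. Endpoints are linearly interpolated between the surrounding concentrations. GI50 marks 50% less growth. The concentration for full growth arrest is given as TGI.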

What was measured:
Experiment in all cases: growth of human tumour cells (NCI), 48 h
NCI-H460 lung = test system: NCI-H460 lung
RPMI-8226 leukemia = test system: RPMI-8226 leukemia
U251 CNS = test system: U251 CNS
A549 NSCLC = test system: A549 NSCLC
OVCAR-3 ovarian = test system: OVCAR-3 ovarian
UACC-257 melanoma = test system: UACC-257 melanoma
HCT-15 colon = test system: HCT-15 colon
BT-549 breast = test system: BT-549 breast
COLO 205 colon = test system: COLO 205 colon
LOX IMVI melanoma = test system: LOX IMVI melanoma
DU-145 prostate = test system: DU-145 prostate
HOP-92 NSCLC = test system: HOP-92 NSCLC
MDA-MB-435 = test system: MDA-MB-435
CCRF-CEM leukemia = test system: CCRF-CEM leukemia
SF-295 CNS = test system: SF-295 CNS
SW-620 colon = test system: SW-620 colon
SK-MEL-28 melanoma = test system: SK-MEL-28 melanoma
OVCAR-5 ovarian = test system: OVCAR-5 ovarian
SNB-19 CNS = test system: SNB-19 CNS
HS 578T breast = test system: HS 578T breast
ACHN renal = test system: ACHN renal
K-562 leukemia = test system: K-562 leukemia
M14 melanoma = test system: M14 melanoma
OVCAR-8 ovarian = test system: OVCAR-8 ovarian
UACC-62 melanoma = test system: UACC-62 melanoma
MDA-MB-231 breast = test system: MDA-MB-231 breast
786-0 renal = test system: 786-0 renal
SF-539 CNS = test system: SF-539 CNS
HCC-2998 colon = test system: HCC-2998 colon
CAKI-1 renal = test system: CAKI-1 renal
MOLT-4 leukemia = test system: MOLT-4 leukemia
MDA-MB-468 breast = test system: MDA-MB-468 breast
HCT-116 colon = test system: HCT-116 colon
HL-60(TB) leukemia = test system: HL-60(TB) leukemia
EKVX NSCLC = test system: EKVX NSCLC
OVCAR-4 ovarian = test system: OVCAR-4 ovarian
PC-3 prostate = test system: PC-3 prostate
SK-MEL-2 melanoma = test system: SK-MEL-2 melanoma
MALME-3M melanoma = test system: MALME-3M melanoma
SK-OV-3 ovarian = test system: SK-OV-3 ovarian
SNB-75 CNS = test system: SNB-75 CNS
SN12C renal = test system: SN12C renal
MCF7 breast = test system: MCF7 breast
HT29 colon = test system: HT29 colon
HOP-62 NSCLC = test system: HOP-62 NSCLC
NCI/ADR-RES ovarian = test system: NCI/ADR-RES ovarian
NCI-H226 lung = test system: NCI-H226 lung
RXF 393 renal = test system: RXF 393 renal
NCI-H522 lung = test system: NCI-H522 lung
SF-268 CNS = test system: SF-268 CNS
SR leukemia = test system: SR leukemia
SK-MEL-5 melanoma = test system: SK-MEL-5 melanoma
A498 renal = test system: A498 renal
TK-10 renal = test system: TK-10 renal
T-47D breast = test system: T-47D breast
IGROV1 ovarian = test system: IGROV1 ovarian
UO-31 renal = test system: UO-31 renal
NCI-H23 lung = test system: NCI-H23 lung
KM12 colon = test system: KM12 colon

Compound: CCOc1ccccc1[C@H]1C(C(=O)c2ccc(Cl)cc2)C2(N[C@@H]1c1ccccc1)C(=O)Nc1ccc(Cl)cc12 (stereo partly drawn)
- GI50 (NCI-H460 lung): 7.56 µM
- TGI (NCI-H460 lung): > 18.8 µM
- GI50 (RPMI-8226 leukemia): 10.6 µM
- TGI (RPMI-8226 leukemia): > 18.8 µM
- GI50 (U251 CNS): > 18.8 µM
- TGI (U251 CNS): > 18.8 µM
- GI50 (A549 NSCLC): 8.86 µM
- TGI (A549 NSCLC): > 18.8 µM
- GI50 (OVCAR-3 ovarian): 7.8 µM
- TGI (OVCAR-3 ovarian): > 18.8 µM
- GI50 (UACC-257 melanoma): 8.85 µM
- TGI (UACC-257 melanoma): > 18.8 µM
- GI50 (HCT-15 colon): 13.8 µM
- TGI (HCT-15 colon): > 18.8 µM
- GI50 (BT-549 breast): > 18.8 µM
- TGI (BT-549 breast): > 18.8 µM
- GI50 (COLO 205 colon): > 18.8 µM
- TGI (COLO 205 colon): > 18.8 µM
- GI50 (LOX IMVI melanoma): 9.63 µM
- TGI (LOX IMVI melanoma): > 18.8 µM
- GI50 (DU-145 prostate): > 18.8 µM
- TGI (DU-145 prostate): > 18.8 µM
- GI50 (HOP-92 NSCLC): 13 µM
- TGI (HOP-92 NSCLC): > 18.8 µM
- GI50 (MDA-MB-435): 13.9 µM
- TGI (MDA-MB-435): > 18.8 µM
- GI50 (CCRF-CEM leukemia): 11.4 µM
- TGI (CCRF-CEM leukemia): > 18.8 µM
- GI50 (SF-295 CNS): 7.53 µM
- TGI (SF-295 CNS): > 18.8 µM
- GI50 (SW-620 colon): 13.4 µM
- TGI (SW-620 colon): > 18.8 µM
- GI50 (SK-MEL-28 melanoma): > 18.8 µM
- TGI (SK-MEL-28 melanoma): > 18.8 µM
- GI50 (OVCAR-5 ovarian): > 18.8 µM
- TGI (OVCAR-5 ovarian): > 18.8 µM
- GI50 (SNB-19 CNS): > 18.8 µM
- TGI (SNB-19 CNS): > 18.8 µM
- GI50 (HS 578T breast): > 18.8 µM
- TGI (HS 578T breast): > 18.8 µM
- GI50 (ACHN renal): 8.05 µM
- TGI (ACHN renal): > 18.8 µM
- GI50 (K-562 leukemia): 6.2 µM
- TGI (K-562 leukemia): > 18.8 µM
- GI50 (M14 melanoma): 12.3 µM
- TGI (M14 melanoma): > 18.8 µM
- GI50 (OVCAR-8 ovarian): 18.3 µM
- TGI (OVCAR-8 ovarian): > 18.8 µM
- GI50 (UACC-62 melanoma): 3.93 µM
- TGI (UACC-62 melanoma): > 18.8 µM
- GI50 (MDA-MB-231 breast): 15 µM
- TGI (MDA-MB-231 breast): > 18.8 µM
- GI50 (786-0 renal): > 18.8 µM
- TGI (786-0 renal): > 18.8 µM
- GI50 (SF-539 CNS): > 18.8 µM
- TGI (SF-539 CNS): > 18.8 µM
- GI50 (HCC-2998 colon): 6.18 µM
- TGI (HCC-2998 colon): > 18.8 µM
- GI50 (CAKI-1 renal): 4.11 µM
- TGI (CAKI-1 renal): > 18.8 µM
- GI50 (MOLT-4 leukemia): 5.36 µM
- TGI (MOLT-4 leukemia): > 18.8 µM
- GI50 (MDA-MB-468 breast): 4.84 µM
- TGI (MDA-MB-468 breast): > 18.8 µM
- GI50 (HCT-116 colon): 7.48 µM
- TGI (HCT-116 colon): > 18.8 µM
- GI50 (HL-60(TB) leukemia): 12.8 µM
- TGI (HL-60(TB) leukemia): > 18.8 µM
- GI50 (EKVX NSCLC): 18.6 µM
- TGI (EKVX NSCLC): > 18.8 µM
- GI50 (OVCAR-4 ovarian): > 18.8 µM
- TGI (OVCAR-4 ovarian): > 18.8 µM
- GI50 (PC-3 prostate): 5.51 µM
- TGI (PC-3 prostate): > 18.8 µM
- GI50 (SK-MEL-2 melanoma): > 18.8 µM
- TGI (SK-MEL-2 melanoma): > 18.8 µM
- GI50 (MALME-3M melanoma): > 18.8 µM
- TGI (MALME-3M melanoma): > 18.8 µM
- GI50 (SK-OV-3 ovarian): > 18.8 µM
- TGI (SK-OV-3 ovarian): > 18.8 µM
- GI50 (SNB-75 CNS): 2.84 µM
- TGI (SNB-75 CNS): > 18.8 µM
- GI50 (SN12C renal): 13.8 µM
- TGI (SN12C renal): > 18.8 µM
- GI50 (MCF7 breast): 6.01 µM
- TGI (MCF7 breast): > 18.8 µM
- GI50 (HT29 colon): 14.4 µM
- TGI (HT29 colon): > 18.8 µM
- GI50 (HOP-62 NSCLC): > 18.8 µM
- TGI (HOP-62 NSCLC): > 18.8 µM
- GI50 (NCI/ADR-RES ovarian): > 18.8 µM
- TGI (NCI/ADR-RES ovarian): > 18.8 µM
- GI50 (NCI-H226 lung): > 18.8 µM
- TGI (NCI-H226 lung): > 18.8 µM
- GI50 (RXF 393 renal): 16.2 µM
- TGI (RXF 393 renal): > 18.8 µM
- GI50 (NCI-H522 lung): 8.03 µM
- TGI (NCI-H522 lung): > 18.8 µM
- GI50 (SF-268 CNS): 10.5 µM
- TGI (SF-268 CNS): > 18.8 µM
- GI50 (SR leukemia): 5.28 µM
- TGI (SR leukemia): > 18.8 µM
- GI50 (SK-MEL-5 melanoma): > 18.8 µM
- TGI (SK-MEL-5 melanoma): > 18.8 µM
- GI50 (A498 renal): > 18.8 µM
- TGI (A498 renal): > 18.8 µM
- GI50 (TK-10 renal): > 18.8 µM
- TGI (TK-10 renal): > 18.8 µM
- GI50 (T-47D breast): 7.73 µM
- TGI (T-47D breast): > 18.8 µM
- GI50 (IGROV1 ovarian): 7.98 µM
- TGI (IGROV1 ovarian): > 18.8 µM
- GI50 (UO-31 renal): 5.3 µM
- TGI (UO-31 renal): > 18.8 µM
- GI50 (NCI-H23 lung): 17.3 µM
- TGI (NCI-H23 lung): > 18.8 µM
- GI50 (KM12 colon): 9.75 µM
- TGI (KM12 colon): > 18.8 µM
